Laboratory results published in patent US6603031B1, “Vitamin D derivatives with cyclic substructures in the side chains, process and intermediate products for their production, and the use for the production of pharmaceutical agents” (Schering Aktiengesellschaft, priority 1999, dated 2003).
Where two headings read alike, the source gives them in different places.

Experiments:
vitamin D receptor = biological target: T1, vitamin D receptor (Sus scrofa, UniProt A3RGC1); assay: calcitriol-receptor test (competition with 3H-calcitriol); details: protein extract from intestines of juvenile pigs
T1 sequence (A3RGC1 1-427): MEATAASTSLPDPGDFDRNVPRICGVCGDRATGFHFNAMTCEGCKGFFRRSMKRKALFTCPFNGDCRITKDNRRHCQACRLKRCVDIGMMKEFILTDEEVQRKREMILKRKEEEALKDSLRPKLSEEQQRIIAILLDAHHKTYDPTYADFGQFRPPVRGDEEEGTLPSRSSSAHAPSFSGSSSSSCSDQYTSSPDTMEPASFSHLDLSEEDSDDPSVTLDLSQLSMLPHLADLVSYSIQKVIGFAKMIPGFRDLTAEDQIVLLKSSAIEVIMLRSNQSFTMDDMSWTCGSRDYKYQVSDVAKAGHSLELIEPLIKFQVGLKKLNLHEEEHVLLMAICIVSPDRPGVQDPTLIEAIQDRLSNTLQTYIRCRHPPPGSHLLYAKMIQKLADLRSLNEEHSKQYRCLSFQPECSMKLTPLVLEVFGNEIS
Description: The vitamin D activity of the substances according to the invention is determined with the aid of the calcitriol-receptor test. It is carried out using a protein extract from the intestines of juvenile pigs. […] To this end, 250 μl of a charcoal-dextran suspension is fed to each test tube and incubated at 4° C. for 20 minutes. Then, the samples are centrifuged at 10,000 g for 5 minutes at 40° C. The supernatant is decanted and measured in a β-counter after 1 hour of equilibration in Picofluor 15™.
The competition curves that are obtained at various concentrations of test substance as well as of reference substance (unlabeled calcitriol) at constant concentration of the reference substance (^3H-calcitriol) are placed in relation to one another, and a competition factor (KF) is determined.
It is defined as a quotient of the concentrations of the respective test substance and the reference substance, which are necessary for 50% competition:
KF=Concentration of test substance at 50% competition/Concentration of reference substance at 50% competition

HL 60 cells = assay: differentiation induction of HL 60 cells to macrophages (NBT reduction); format: cell-based, human; details: 96 hours incubation, reference calcitriol
Description: The differentiation-stimulating action of calcitriol analogues is also detected quantitatively.
It is known in the literature [D. J. Mangelsdorf et al., J. Cell. Biol. 98: 391 (1984)] that the treatment of human leukemia cells (promyelocyte cell line HL 60) in vitro with calcitriol induces the differentiation of cells to macrophages.
HL 60 cells are cultivated in tissue culture medium (RPMI 10% fetal calf serum) at 37° C. in an atmosphere of 5% CO2 in air.
For substance testing, the cells are centrifuged off, and 2.0×10^5 cells/ml in phenol red-free tissue culture medium is taken up. The test substances are dissolved in ethanol and diluted with tissue culture medium without phenol red to the desired concentration. The dilution stages are mixed with the cell suspension at a ratio of 1:10, and 100 μl each of this cell suspension that is mixed with substance is pipetted into an indentation of a 96-hole plate. For control, a cell suspension is mixed analogously with the solvent.
After incubation for 96 hours at 37° C. in 5% CO2 in air, 100 μl of an NBT-TPA solution (nitro blue tetrazolium (NBT), final concentration in the batch of 1 mg/ml, tetradecanoyl phorbolmyristate-13-acetate (TPA), final concentration in the batch of 2×10^−7 mol/l) is pipetted into each indentation of the 96-hole plate in the cell suspension.
By incubation for 2 hours at 37° C. and 5% CO2 in air, NBT is reduced to insoluble formazan because of the intracellular oxygen radical release, stimulated by TPA, in the cells that are differentiated to macrophages.
To complete the reaction, the indentations of the 96-hole plate are suctioned off, and the cells are affixed to the bottom of the plate by adding methanol and dried after affixing. To dissolve the intracellular formazan crystals that are formed, 100 μl of potassium hydroxide (2 mol/l) and 100 μl of dimethyl sulfoxide are pipetted into each indentation and ultrasonically treated for 1 minute. The concentration of formazan is measured by spectrophotometry at 650 nm.
As a yardstick for the differentiation induction of HL 60 cells to macrophages, the concentration of formed formazan applies.

[1] = rat, in vivo, sc
Description: (§1) To determine the acute hypercalcemic action of various calcitriol derivatives, the test that is described below is carried out:
(§2) During the testing time, the rats are kept in special cages to determine the excretion-of water-and mineral substances. Urine is collected in 2 fractions (0-16 hours and 16-22 hours). An oral dose of calcium (0.1 mmol of calcium in 6.5% alpha-hydroxypropyl-cellulose, 5 ml/animal) replaces at 1600 hours the calcium intake that is lacking by food deprivation. At the end of the test, the animals are killed by decapitation and exsanguinated to determine the serum-calcium values. For the primary screen test in vivo, an individual standard dose (200 μg/kg) is tested. For selected substances, the result is supported by establishing a dose-effect relation.
(§3) The significance of differences occurring between substance groups and controls and between test substance and reference substance are supported with suitable statistical processes.

[2] = acute hypercalcemic action after one-time subcutaneous administration (serum calcium); details: male rats, reference calcitriol
Description: as §1, §2, §3

KF (competition factor: concentration of test substance / reference substance at 50% competition) (vitamin D receptor) | DR (Ca) (dose ratio for hypercalcemia, test substance dose/reference substance dose for comparable actions) [1] | Compound | DR (HL 60) (dose ratio test substance/reference substance for comparable semi-maximum actions) (HL 60 cells) | DR (Ca) (dose ratio for hypercalcemia, test substance dose/reference substance dose for comparable actions) [2]
5 | >30 | CC(CCCC(O)c1cocn1)C1CCC2C(=CC=C3CC(O)CC(O)C3)CCCC21C [16a, (7E)-(1R,3R,24aR)-24a-(Oxazol-4-yl)-24a-homo-19-nor-9,10-secochola-5,7-diene-1,3,24a-triol] | 5 | –
5 | >100 | C[C@H](CCC[C@H](O)c1cccs1)[C@H]1CC[C@H]2/C(=C/C=C3C[C@@H](O)C[C@H](O)C3)CCC[C@]12C [55b, (7E)-(1R,3R,24aS)-24a-(thien-2-yl)-24a-homo-19-nor-9,10-secochola-5,7-diene-1,3,24a-triol] | 8 | –
7 | >300 | C=C1C(=CC=C2CCCC3(C)C2CCC3C(C)CCC(O)c2nccs2)CC(O)CC1O [217a, (5Z,7E)-(1S,3R,24S)-24-(Thiazol-2-yl)-9,10-secochola-5,7,10(19)-triene-1,3,24-triol] | 100 | –
– | – | C=C1/C(=C\C=C2/CCC[C@]3(C)[C@@H]([C@H](C)CCCC(C)(C)O)CC[C@@H]23)C[C@@H](O)C[C@@H]1O [Calcitriol, 1,25-dihydroxy vitamin D3, reference compound] | 1 | 1
12 | >350 | C[C@H](CCCC(=O)c1cccs1)[C@H]1CC[C@H]2/C(=C/C=C3C[C@@H](O)C[C@H](O)C3)CCC[C@]12C [compound 57, (7E)-(1R,3R)-1,3-Dihydroxy-24a-(thien-2-yl)-24a-homo-19-nor-9,10-secochola-5,7-dien-24a-one] | 2 | –

Compound | KF (competition factor: concentration of test substance / reference substance at 50% competition) (vitamin D receptor) | DR (Ca) (dose ratio for hypercalcemia, test substance dose/reference substance dose for comparable actions) [1] | DR (HL 60) (dose ratio test substance/reference substance for comparable semi-maximum actions) (HL 60 cells) | DR (Ca) (dose ratio for hypercalcemia, test substance dose/reference substance dose for comparable actions) [2]
C=C1C(=CC=C2CCCC3(C)C2CCC3C(C)CCCC(O)c2cocn2)CC(O)CC1O [20a, (5Z,7E)-(1S,3R,24aR)-24a-(Oxazol-4-yl)-24a-homo-9,10-secochola-5,7,10(19)-triene-1,3,24a-triol] | 3 | – | 2 | >50
